Results on 13 molecules are retold here after US8563546B2, “Heterocyclic nitrogenous or oxygenous compounds with insecticidal activity formed from dialdehydes and their preparation and uses thereof” (East China University of Science and Technology, priority 2008, dated 2013).

Common to all, as to assay type: in vivo
For one data set, the system named is Plutella Xylostella. The data set is described as follows: Activity test for diamondback moth, feeding immersed cabbage leaves. The note with it: for mortality at 500 ppm: Plutella xylostella, read-out: Diamondback moth Mortality (100%) 500 ppm. On the procedure:
(4) Activity Test for Diamondback Moth (Plutella Xylostella)
Diamondback moth was tested by the way of feeding immersed leaves. Fresh cabbage leaves were immersed in above mentioned solution for 3 seconds and dried at room temperature and used to feed to the tested insects. Each process was repeated for 3 tumblers (3 times) while 10 Diamondback moths were tested in each experiment, while water was used as control. The number of killed Diamondback moth was counted after 24 hours to calculate the mortality using above mentioned formula.

The test system of the next data set is Aphis craccivoral. Description: Activity test for cowpea aphids, immersing. Particulars: for mortality at 500 ppm: Aphis, read-out: Cowpea Aphids Mortality (100%) 500 ppm. How it is done: (1) Activity Test for Cowpea Aphids (Aphis Craccivoral)
Aphis, which belongs to Homoptera and has a piercing-sucking mouthpart, is a common insect for agricultural plant. Aphis craccivoral was tested by the way of immersing.
Test method: exactly weighed various samples were independently added to N,N-dimethylformamide to form a 10 g/L stock solution. The mixture was diluted with 0.2 mL/L aqueous Triton X-100 solution to a concentration of 500 ppm After stably sucking on bean sprout, the adult aphis without wings together with bean sprout was dipped into 500 ppm dilution, taken out after 5 seconds, and the excess dilution was sucked out with bibulous paper and the adult aphis without wings was incubated in clean vessel at a constant temperature of 23° C. Each concentration was repeated for 3 times and the control group contained 0.2 mL/L aqueous Triton X-100 solution. The number of killed aphis was counted after 24 hours to calculate the mortality by the following formula: mortality(%)=(control alive aphis−treated alive aphis)/control alive aphis×100%.

Data set [1] relates to Pseudaletia Separate Walker. The data set is described as follows: Activity test for armyworm, feeding immersed maize leaves. The note with it: for mortality at 500 ppm: read-out: Armyworm Mortality (100%) 500 ppm. How it is done:
(3) Activity Test for Armyworm (Pseudaletia Separate Walker)
Armyworm was tested by the way of feeding immersed leaves. The test compound was exactly formulated into a solution of acetone to concentration 500, 250, 100, 50, 25, 12.5, 6.25, 3.13 and 1.57 ppm. The acetone aqueous solution was used as control. Fresh maize leaves were immersed in the solution for 3 seconds and dried at room temperature and used to feed the tested insects. Each process was repeated for 3 times while 10 Armyworms were tested in each experiment. The number of killed Armyworms was counted after 24 hours to calculate the mortality using above mentioned formula.

A further data set has as its system Nilaparvata lugens. The data set is described as follows: Activity test for planthopper, spraying. The note with it: for mortality at 500 ppm: Nilaparvata lugens, read-out: Planthopper Mortality (100%) 500 ppm. How it is done: (2) Activity Test for Planthopper (Nilaparvata lugens)
Planthopper, which belongs to Homoptera and has a piercing-sucking mouthpart, is a common insect for agricultural plant. Nilaparvata lugens was tested by the way of spraying.
Test method: the test compound was exactly formulated into a solution of acetone to final concentration of 500, 250, 100, 50, 25, 12.5, 6.25, 3.13, 1.57 and 0.79 ppm. The acetone aqueous solution was used as control. Each process was repeated for 3 tumblers (3 times). 2 mL of solution was sprayed uniformly to each cup by a mini manual sprayer. 10 Nilaparvata lugens were introduced to every sink 6 hours before spraying. Three series of experiments were conducted. The number of killed Nilaparvata lugens was counted after 24 hours to calculate the mortality using above mentioned formula.

[2] abbreviates: 500 ppm, immersed cabbage leaves, counted after 24 hours.
The mark [3] stands for this setting: 500 ppm, dipped 5 seconds, counted after 24 hours, 23° C.
The mark [4] stands for this setting: 500 ppm, immersed maize leaves, counted after 24 hours.
[5] abbreviates: 500 ppm, spraying, counted after 24 hours.

Read-outs that look alike come from different tables or passages of the source.

Turning to “1-((6-chloropyridin-3-yl)methyl)-5-(1-((6-chloropyridin-3-yl) methyl)-1,4,5,6-tetrahydropyrimidin-2-yl)-1,5-dinitropenta-1,4-dienyl)-1,4,5,6-tetrahydropyrimidine [Compound 43]”, the “Diamondback moth Mortality (100%) 500 ppm” value in the data set with Plutella Xylostella (setting [2]) was 96%. Moreover, in the data set with Aphis craccivoral (setting [3]), the “Cowpea Aphids Mortality (100%) 500 ppm” value is 78%. Also, in data set [1] (setting [4]), the “Armyworm Mortality (100%) 500 ppm” value was 100%. For the same molecule, in the data set with Nilaparvata lugens (setting [5]), the “Planthopper Mortality (100%) 500 ppm” value is on record as 87%.
The mortality is the share of the test organisms that died. Consider `O=[N+]([O-])/C(=C1/NCCN1Cc1ccc(Cl)nc1)C(O)/C=C(\C1=NCCN1Cc1ccc(Cl)nc1)[N+](=O)[O-]` (stereo not shown) [Compound 13, 4-(1-((6-chloropyridin-3-yl)methyl)-4,5-dihydro-1H-imidazol-2-yl)-1-(1-((6-chloropyridin-3-yl)methyl)imidazolidin-2-ylidene)-1,4-dinitrobut-3-en-2-ol], for which the mortality at 500 ppm in the data set with Plutella Xylostella (24 h) was 100%; with Aphis craccivoral (24 h) it was 78%; in data set [1] (24 h), 100%; with Nilaparvata lugens (24 h), 85%.
Turning to `COC(/C=C(\C1=NCCN1Cc1ccc(Cl)nc1)[N+](=O)[O-])/C(=C1\NCCN1Cc1ccc(Cl)nc1)[N+](=O)[O-]` (stereo not shown) [Compound 14], the mortality at 500 ppm (with Plutella Xylostella (24 h); with Aphis craccivoral (24 h); in data set [1] (24 h); in the data set with Nilaparvata lugens (24 h)) was 100% throughout.
As to `CCN(Cc1ccc(Cl)nc1)C(=N\C)/C(=C\C/C=C(\C(=N\C)N(CC)Cc1ccc(Cl)nc1)[N+](=O)[O-])[N+](=O)[O-]` [Compound 37, N^1,N^7-bis((6-chloropyridin-3-yl)methyl)-N^1,N^7-diethyl-N^1′, N^7′-dimethyl-2,6-dinitrohepta-2,5-dienediamidine], the mortality at 500 ppm (in the data set on Plutella Xylostella (24 h); in the data set on Aphis craccivoral (24 h); in data set [1] (24 h); in the data set with Nilaparvata lugens (24 h)) was 100% in each case.
For `O=[N+]([O-])/C(=C/C/C=C(\C1=NCCN1Cc1ccc(Cl)nc1)[N+](=O)[O-])C1=NCCN1Cc1ccc(Cl)nc1` [Compound 39], the mortality at 500 ppm (with Plutella Xylostella (24 h); in the data set on Aphis craccivoral (24 h); in data set [1] (24 h); in the data set with Nilaparvata lugens (24 h)) was 100% each time.
In the case of `O=[N+]([O-])/C(=C/C/C=C(\C1=NCCN1Cc1cnc(Cl)s1)[N+](=O)[O-])C1=NCCN1Cc1cnc(Cl)s1` [Compound 41], the mortality at 500 ppm (in the data set on Plutella Xylostella (24 h); with Aphis craccivoral (24 h); in data set [1] (24 h); with Nilaparvata lugens (24 h)) was 100% throughout.
As for `CCN(Cc1ccc(Cl)nc1)C1=C([N+](=O)[O-])C2CCC(O2)N1C` (stereo not shown) [Compound 46, N-((6-chloropyridin-3-yl)methyl)-N-ethyl-2-methyl-4-nitro-8-oxa-2-aza-bicyclo[3.2.1]oct-3-en-3-amine], the mortality at 500 ppm (in the data set with Plutella Xylostella (setting [2]); in the data set on Aphis craccivoral (setting [3]); in data set [1] (setting [4]); with Nilaparvata lugens (setting [5])) was 100% each time.
In the case of `O=[N+]([O-])C1=C2N(Cc3ccc(Cl)nc3)CCN2C2CCC1O2` (stereo not shown) [Compound 52, 1-((6-chloropyridin-3-yl)methyl)-9-nitro-2,3,5,6,7,8-hexahydro-1H-5,8-epoxyimidazo[1,2-a]azepine], the mortality at 500 ppm (in the data set with Plutella Xylostella (setting [2]); with Aphis craccivoral (setting [3]); in data set [1] (setting [4]); in the data set with Nilaparvata lugens (setting [5])) was 100% throughout.
Turning to `O=[N+]([O-])C1=C2N(Cc3cnc(Cl)s3)CCN2C2CCC1O2` (stereo not shown) [Compound 53, 1-((2-chlorothiazol-5-yl)methyl)-9-nitro-2,3,5,6,7,8-hexahydro-1H-5,8-epoxyimidazo[1,2-a]azepine], the mortality at 500 ppm (with Plutella Xylostella (setting [2]); in the data set on Aphis craccivoral (setting [3]); in data set [1] (setting [4]); with Nilaparvata lugens (setting [5])) was 100% in each case.
Consider `O=[N+]([O-])C1=C2N(Cc3ccc(Cl)nc3)CCCN2C2CCC1O2` (stereo not shown) [Compound 61, 1-((6-chloropyridin-3-yl)methyl)-10-nitro-1,2,3,4,6,7,8,9-octahydro-6,9-epoxypyrimido[1,2-a]azepine], for which the mortality at 500 ppm in the data set on Plutella Xylostella (setting [2]) came out at 35%; in the data set on Aphis craccivoral (setting [3]), 65%; in data set [1] (setting [4]), 76%; in the data set on Nilaparvata lugens (setting [5]) it was 75%.
Take `N#CC1=C2N(Cc3ccc(Cl)nc3)CCN2C2CCC1O2` (stereo not shown) [Compound 64, 1-((6-chloropyridin-3-yl)methyl)-2,3,5,6,7,8-hexahydro-1H-5,8-epoxyimidazo[1,2-a]azepine-9-carbonitrile]: the mortality at 500 ppm was 100% in the data set with Plutella Xylostella (setting [2]), 96% in the data set on Aphis craccivoral (setting [3]), 100% in data set [1] (setting [4]) and 56% in the data set with Nilaparvata lugens (setting [5]).
For the molecule `O=[N+]([O-])C1=C2N(Cc3ccc(Cl)nc3)CCN2C2CCCC1O2` (stereo not shown) [Compound 77, 1-((6-chloropyridin-3-yl)methyl)-10-nitro-1,2,3,5,6,7,8,9-octahydro-5,9-epoxyimidazo[1,2-a]azocine], the mortality at 500 ppm (in the data set with Plutella Xylostella (setting [2]); in the data set on Aphis craccivoral (setting [3]); in data set [1] (setting [4]); in the data set with Nilaparvata lugens (setting [5])) was 100% throughout.
Consider `O=[N+]([O-])C1=C2N(CC3CCOC3)CCN2C2CCCC1O2` (stereo not shown) [Compound 80, 10-nitro-1-((tetrahydrofuran-3-yl)methyl)-1,2,3,5,6,7,8,9-octahydro-5,9-epoxyimidazo[1,2-a]azocine], for which the mortality at 500 ppm (in the data set with Plutella Xylostella (setting [2]); with Aphis craccivoral (24 h); in data set [1] (24 h); with Nilaparvata lugens (24 h)) was 100% each time.
